Assay results published in PMC5791972 (PLoS ONE, 2018).
Where two headings read alike, the source gives them in different places.

Key:
hTRPV1 = target: T1, hTRPV1 (Homo sapiens, UniProt Q8NER1); test: Ion channel selectivity patch clamp; assay type: cell-based
T1 construct: The cDNAs for various full-length ion channels were subcloned into pcDNA5/TO; expressed in transfected cells; host or cells: T-REx-293 (general cell paragraph)

hTRPV3 = target: T2, hTRPV3 (Homo sapiens, UniProt Q8NET8); test: Ion channel selectivity patch clamp; assay type: cell-based
T2 construct: The cDNAs for various full-length ion channels were subcloned into pcDNA5/TO; expressed in transfected cells; host or cells: T-REx-293 (general cell paragraph)

Nav1.2 = target: T3, Nav1.2 (Homo sapiens, UniProt Q99250); test: Ion channel selectivity patch clamp; assay type: cell-based
T3 construct: The cDNAs for various full-length ion channels were subcloned into pcDNA5/TO; expressed in transfected cells

D1 (h) = target: T4, D1 (h) (Homo sapiens, UniProt P21728); assay type: binding
T4 construct: host or cells: CHO cells

D3 (h) = target: T5, D3 (h) (Homo sapiens, UniProt P35462); assay type: binding
T5 construct: host or cells: CHO cells

M5 (h) = target: T6, M5 (h) (Homo sapiens, UniProt P08912); assay type: binding
T6 construct: host or cells: CHO cells
T6 sequence (P08912 1-532): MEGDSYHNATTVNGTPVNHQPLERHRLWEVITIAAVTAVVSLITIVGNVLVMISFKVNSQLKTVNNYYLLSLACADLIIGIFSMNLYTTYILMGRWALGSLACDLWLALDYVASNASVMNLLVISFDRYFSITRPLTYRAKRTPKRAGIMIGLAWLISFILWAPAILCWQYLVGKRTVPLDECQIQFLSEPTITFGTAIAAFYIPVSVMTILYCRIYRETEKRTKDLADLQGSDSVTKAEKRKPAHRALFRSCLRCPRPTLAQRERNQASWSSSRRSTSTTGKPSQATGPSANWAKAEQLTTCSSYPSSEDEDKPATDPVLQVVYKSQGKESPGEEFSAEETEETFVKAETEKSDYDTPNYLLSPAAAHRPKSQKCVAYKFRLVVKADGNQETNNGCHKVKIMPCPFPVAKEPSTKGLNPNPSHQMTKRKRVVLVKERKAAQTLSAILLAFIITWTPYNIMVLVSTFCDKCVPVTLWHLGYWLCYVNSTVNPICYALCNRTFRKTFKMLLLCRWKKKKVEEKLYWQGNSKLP

δ2 (DOP) (h) = target: T7, δ2 (DOP) (h) (Homo sapiens, UniProt P41143); assay type: binding; conditions: 1.0E-06 M
T7 construct: host or cells: CHO cells

5-HT1A (h) = target: T8, 5-HT1A (h) (Homo sapiens, UniProt P08908); assay type: binding; conditions: 1.0E-06 M
T8 construct: host or cells: HEK-293 cells
T8 sequence (P08908 1-422): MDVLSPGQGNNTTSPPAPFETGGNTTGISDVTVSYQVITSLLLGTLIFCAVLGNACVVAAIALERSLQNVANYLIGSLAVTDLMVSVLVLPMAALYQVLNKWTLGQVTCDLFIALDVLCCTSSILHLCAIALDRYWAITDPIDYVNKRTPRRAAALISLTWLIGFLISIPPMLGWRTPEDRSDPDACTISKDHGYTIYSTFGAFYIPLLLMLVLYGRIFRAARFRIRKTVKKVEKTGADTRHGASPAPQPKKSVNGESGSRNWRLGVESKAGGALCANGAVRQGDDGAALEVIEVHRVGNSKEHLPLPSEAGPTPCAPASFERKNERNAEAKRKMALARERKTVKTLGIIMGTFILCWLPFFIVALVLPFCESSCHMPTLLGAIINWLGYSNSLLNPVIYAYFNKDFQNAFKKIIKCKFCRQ

5-HT2A (h) = target: T9, 5-HT2A (h) (Homo sapiens, UniProt P28223); assay type: binding; conditions: 1.0E-06 M
T9 construct: host or cells: HEK-293 cells

5-HT2C (h) = target: T10, 5-HT2C (h) (Homo sapiens, UniProt P28335); assay type: binding; conditions: 1 h, 1.0E-06 M
T10 construct: host or cells: HEK-293 cells
T10 sequence (P28335 33-458): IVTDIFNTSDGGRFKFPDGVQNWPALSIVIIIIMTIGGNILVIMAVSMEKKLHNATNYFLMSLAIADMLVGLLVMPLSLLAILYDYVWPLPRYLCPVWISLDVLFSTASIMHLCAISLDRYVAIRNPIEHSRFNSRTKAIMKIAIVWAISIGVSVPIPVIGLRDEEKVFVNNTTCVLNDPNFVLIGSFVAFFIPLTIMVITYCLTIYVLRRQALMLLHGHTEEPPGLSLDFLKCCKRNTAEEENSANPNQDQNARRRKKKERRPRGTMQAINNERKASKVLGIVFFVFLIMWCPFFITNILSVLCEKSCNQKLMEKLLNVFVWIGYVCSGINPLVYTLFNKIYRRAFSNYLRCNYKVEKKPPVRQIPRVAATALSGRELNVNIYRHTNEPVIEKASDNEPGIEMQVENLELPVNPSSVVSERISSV

[1] = target: T11, norepinephrine transporter (h) (Homo sapiens, UniProt P23975); assay type: binding
T11 construct: host or cells: CHO cells

5-HT transporter (h) = target: T12, 5-HT transporter (h) (Homo sapiens, UniProt P31645); assay type: binding; conditions: 1 h
T12 construct: host or cells: CHO cells

PDE5 (h) (non-selective) = PDE5 (h) (non-selective) (Homo sapiens, UniProt O76074); test: biochemical

T12 sequence (P31645 whole entry): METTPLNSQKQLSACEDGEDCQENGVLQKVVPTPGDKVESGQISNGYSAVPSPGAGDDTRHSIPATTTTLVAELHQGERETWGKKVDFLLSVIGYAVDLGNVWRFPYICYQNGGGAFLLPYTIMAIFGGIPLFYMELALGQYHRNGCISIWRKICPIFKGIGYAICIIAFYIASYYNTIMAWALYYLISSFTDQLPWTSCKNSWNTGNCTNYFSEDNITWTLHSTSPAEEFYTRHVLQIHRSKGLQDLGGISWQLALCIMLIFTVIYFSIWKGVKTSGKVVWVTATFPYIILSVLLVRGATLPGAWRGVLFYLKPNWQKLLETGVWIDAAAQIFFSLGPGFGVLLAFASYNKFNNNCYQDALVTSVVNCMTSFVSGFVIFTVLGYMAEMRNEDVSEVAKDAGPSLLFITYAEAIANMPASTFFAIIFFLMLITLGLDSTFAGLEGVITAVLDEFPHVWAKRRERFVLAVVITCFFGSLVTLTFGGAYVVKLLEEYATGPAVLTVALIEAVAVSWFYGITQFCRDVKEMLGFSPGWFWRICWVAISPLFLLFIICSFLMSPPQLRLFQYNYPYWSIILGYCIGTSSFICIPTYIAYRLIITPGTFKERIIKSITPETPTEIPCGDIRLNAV
T4 sequence (P21728 whole entry): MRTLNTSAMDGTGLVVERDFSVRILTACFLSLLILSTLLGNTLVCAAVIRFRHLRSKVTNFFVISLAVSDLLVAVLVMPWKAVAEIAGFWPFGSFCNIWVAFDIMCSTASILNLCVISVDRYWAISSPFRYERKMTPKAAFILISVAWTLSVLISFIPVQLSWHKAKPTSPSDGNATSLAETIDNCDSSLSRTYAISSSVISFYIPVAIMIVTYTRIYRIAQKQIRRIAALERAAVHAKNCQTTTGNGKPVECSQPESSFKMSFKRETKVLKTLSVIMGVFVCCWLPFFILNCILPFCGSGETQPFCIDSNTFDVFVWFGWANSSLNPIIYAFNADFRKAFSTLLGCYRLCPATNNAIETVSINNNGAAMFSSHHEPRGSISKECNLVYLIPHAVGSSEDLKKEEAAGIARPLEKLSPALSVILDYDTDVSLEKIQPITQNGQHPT
T9 sequence (P28223 whole entry): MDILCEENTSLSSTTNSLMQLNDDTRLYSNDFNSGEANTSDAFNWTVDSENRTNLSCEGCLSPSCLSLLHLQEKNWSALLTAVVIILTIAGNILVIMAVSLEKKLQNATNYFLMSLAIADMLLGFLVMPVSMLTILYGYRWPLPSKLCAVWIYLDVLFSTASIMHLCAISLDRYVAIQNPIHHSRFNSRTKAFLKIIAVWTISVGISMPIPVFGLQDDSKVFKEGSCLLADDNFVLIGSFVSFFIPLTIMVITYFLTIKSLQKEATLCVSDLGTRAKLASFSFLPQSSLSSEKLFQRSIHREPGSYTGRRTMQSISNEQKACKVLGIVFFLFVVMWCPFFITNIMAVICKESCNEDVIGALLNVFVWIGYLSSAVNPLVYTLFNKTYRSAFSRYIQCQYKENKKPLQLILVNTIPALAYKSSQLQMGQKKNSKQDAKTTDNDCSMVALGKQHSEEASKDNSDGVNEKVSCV
T7 sequence (P41143 whole entry): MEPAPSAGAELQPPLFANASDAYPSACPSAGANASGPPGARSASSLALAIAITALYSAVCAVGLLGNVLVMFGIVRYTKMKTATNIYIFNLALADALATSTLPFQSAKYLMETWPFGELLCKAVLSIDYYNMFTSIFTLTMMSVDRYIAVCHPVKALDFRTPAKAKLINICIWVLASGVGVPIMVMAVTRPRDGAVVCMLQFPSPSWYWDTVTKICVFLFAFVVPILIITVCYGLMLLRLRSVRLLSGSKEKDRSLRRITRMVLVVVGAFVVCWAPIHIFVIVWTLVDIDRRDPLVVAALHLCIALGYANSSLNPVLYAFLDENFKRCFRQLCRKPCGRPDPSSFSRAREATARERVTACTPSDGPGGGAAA
T11 sequence (P23975 whole entry): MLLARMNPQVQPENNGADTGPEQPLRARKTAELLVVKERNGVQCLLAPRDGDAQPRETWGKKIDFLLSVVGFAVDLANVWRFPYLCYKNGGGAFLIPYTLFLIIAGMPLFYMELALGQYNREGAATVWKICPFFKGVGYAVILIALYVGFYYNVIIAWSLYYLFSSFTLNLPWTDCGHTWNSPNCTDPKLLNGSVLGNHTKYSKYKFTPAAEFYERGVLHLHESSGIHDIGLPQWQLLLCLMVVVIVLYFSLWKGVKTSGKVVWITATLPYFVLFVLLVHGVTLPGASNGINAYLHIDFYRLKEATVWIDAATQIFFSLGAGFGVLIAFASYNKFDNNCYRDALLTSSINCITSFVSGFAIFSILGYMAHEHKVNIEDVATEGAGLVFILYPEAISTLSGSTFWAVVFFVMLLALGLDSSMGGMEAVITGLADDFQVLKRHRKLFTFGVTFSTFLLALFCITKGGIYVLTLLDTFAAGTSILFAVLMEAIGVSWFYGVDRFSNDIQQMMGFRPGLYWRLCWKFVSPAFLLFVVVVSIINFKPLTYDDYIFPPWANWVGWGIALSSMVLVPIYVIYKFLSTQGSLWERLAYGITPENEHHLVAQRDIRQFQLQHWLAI
T5 sequence (P35462 whole entry): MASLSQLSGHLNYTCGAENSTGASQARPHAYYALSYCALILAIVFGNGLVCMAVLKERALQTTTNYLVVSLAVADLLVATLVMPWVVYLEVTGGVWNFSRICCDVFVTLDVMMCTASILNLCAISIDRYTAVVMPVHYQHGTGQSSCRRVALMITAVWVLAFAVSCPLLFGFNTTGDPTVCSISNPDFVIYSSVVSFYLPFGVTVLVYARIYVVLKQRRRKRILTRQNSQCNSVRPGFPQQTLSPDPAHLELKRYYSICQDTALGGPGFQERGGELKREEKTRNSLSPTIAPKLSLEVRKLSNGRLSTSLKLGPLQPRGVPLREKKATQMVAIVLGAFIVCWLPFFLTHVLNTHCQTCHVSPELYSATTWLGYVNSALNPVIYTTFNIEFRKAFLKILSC
T2 sequence (Q8NET8 whole entry): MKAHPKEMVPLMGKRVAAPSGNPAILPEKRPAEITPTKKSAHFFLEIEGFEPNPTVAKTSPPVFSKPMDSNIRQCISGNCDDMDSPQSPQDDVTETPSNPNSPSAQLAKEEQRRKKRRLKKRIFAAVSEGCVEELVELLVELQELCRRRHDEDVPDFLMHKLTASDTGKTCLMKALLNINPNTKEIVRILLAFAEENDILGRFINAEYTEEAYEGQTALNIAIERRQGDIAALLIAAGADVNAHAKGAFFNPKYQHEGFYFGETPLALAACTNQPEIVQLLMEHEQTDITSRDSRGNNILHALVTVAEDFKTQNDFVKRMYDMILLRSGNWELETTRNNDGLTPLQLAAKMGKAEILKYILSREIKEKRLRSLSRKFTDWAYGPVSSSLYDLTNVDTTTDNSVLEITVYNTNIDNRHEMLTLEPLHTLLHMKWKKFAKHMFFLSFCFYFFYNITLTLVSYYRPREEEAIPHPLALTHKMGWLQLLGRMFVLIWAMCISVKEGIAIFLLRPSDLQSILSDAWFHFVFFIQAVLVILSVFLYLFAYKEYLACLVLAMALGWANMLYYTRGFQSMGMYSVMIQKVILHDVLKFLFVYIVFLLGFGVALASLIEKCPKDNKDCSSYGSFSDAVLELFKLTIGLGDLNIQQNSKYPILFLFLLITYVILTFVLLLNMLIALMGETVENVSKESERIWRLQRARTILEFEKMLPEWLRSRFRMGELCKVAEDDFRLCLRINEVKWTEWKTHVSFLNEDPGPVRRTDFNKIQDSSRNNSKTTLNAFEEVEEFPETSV
T1 sequence (Q8NER1 whole entry): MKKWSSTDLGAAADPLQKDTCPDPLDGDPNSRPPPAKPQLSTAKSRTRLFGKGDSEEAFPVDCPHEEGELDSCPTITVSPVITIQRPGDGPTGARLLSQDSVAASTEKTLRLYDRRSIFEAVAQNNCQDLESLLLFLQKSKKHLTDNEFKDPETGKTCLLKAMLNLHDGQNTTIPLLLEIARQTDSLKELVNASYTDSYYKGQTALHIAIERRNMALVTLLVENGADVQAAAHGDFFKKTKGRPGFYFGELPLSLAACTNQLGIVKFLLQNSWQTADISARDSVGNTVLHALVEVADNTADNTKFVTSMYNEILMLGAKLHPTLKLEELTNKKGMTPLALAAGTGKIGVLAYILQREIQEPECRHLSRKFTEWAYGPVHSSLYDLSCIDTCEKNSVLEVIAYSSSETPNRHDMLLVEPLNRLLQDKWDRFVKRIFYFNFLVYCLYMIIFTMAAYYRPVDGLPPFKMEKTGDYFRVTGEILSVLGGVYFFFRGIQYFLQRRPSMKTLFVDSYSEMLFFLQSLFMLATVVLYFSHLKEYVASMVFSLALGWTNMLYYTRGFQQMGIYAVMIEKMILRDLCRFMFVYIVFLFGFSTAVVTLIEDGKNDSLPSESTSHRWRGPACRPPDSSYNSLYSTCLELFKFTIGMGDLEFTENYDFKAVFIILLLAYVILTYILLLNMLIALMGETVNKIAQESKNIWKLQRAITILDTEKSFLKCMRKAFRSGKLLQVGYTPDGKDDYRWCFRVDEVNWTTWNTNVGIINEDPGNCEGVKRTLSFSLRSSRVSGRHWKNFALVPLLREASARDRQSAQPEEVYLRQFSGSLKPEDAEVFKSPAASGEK

Compound | IC50 (Nav1.2) [nM] | inhibition at 1 µM (D1 (h); read-out: % Inhibition 1st) [%] | inhibition at 1 µM (D1 (h); read-out: % Inhibition 2nd) [%] | inhibition at 1 µM (D1 (h); read-out: % Inhibition Mean) [%] | inhibition at 1 µM (D3 (h); read-out: % Inhibition 1st) [%] | inhibition at 1 µM (D3 (h); read-out: % Inhibition 2nd) [%] | inhibition at 1 µM (D3 (h); read-out: % Inhibition Mean) [%] | inhibition at 1 µM (M5 (h); read-out: % Inhibition 1st) [%] | inhibition at 1 µM (M5 (h); read-out: % Inhibition 2nd) [%] | inhibition at 1 µM (M5 (h); read-out: % Inhibition Mean) [%] | inhibition at 1 µM (δ2 (DOP) (h); read-out: % Inhibition 1st) [%] | inhibition at 1 µM (δ2 (DOP) (h); read-out: % Inhibition 2nd) [%] | inhibition at 1 µM (δ2 (DOP) (h); read-out: % Inhibition Mean) [%] | inhibition at 1 µM (5-HT1A (h); read-out: % Inhibition 1st) [%] | inhibition at 1 µM (5-HT1A (h); read-out: % Inhibition 2nd) [%] | inhibition at 1 µM (5-HT1A (h); read-out: % Inhibition Mean) [%] | inhibition at 1 µM (5-HT2A (h); read-out: % Inhibition 1st) [%] | inhibition at 1 µM (5-HT2A (h); read-out: % Inhibition 2nd) [%] | inhibition at 1 µM (5-HT2A (h); read-out: % Inhibition Mean) [%] | inhibition at 1 µM (5-HT2C (h); read-out: % Inhibition 1st) [%] | other results
Cn1c(=O)n(CCCO)c(=O)c2c1nc(Oc1cccc(Cl)c1)n2Cc1ccc(Cl)cc1 [HC-070] | > 1900 | 3 | -4.8 | -0.9 | 3.6 | 6.4 | 5 | -7.3 | 10.1 | 1.4 | 6.8 | 5.9 | 6.3 | 8.7 | -24.2 | -7.7 | -1.3 | 6.1 | 2.4 | -13.4 | IC50 (hTRPV1; 500 nM Capsaicin, read-out: IC50): > 1900 nM; IC50 (hTRPV3; 30 µM 2-APB, read-out: IC50): > 1900 nM; inhibition at 1 µM (5-HT2C (h); read-out: % Inhibition 2nd): -9.5%; inhibition at 1 µM (5-HT2C (h); read-out: % Inhibition Mean): -11.5%; inhibition at 1 µM ([1]; read-out: % Inhibition 1st): -10.1%; inhibition at 1 µM ([1]; read-out: % Inhibition 2nd): -0.6%; inhibition at 1 µM ([1]; read-out: % Inhibition Mean): -5.4%; inhibition at 1 µM (5-HT transporter (h); read-out: % Inhibition 1st): -0.3%; inhibition at 1 µM (5-HT transporter (h); read-out: % Inhibition 2nd): 18.4%; inhibition at 1 µM (5-HT transporter (h); read-out: % Inhibition Mean): 9.1%; inhibition at 1 µM (PDE5 (h) (non-selective); read-out: % Inhibition 1st): 27.3%; inhibition at 1 µM (PDE5 (h) (non-selective); read-out: % Inhibition 2nd): 50.4%; inhibition at 1 µM (PDE5 (h) (non-selective); read-out: % Inhibition Mean): 38.9%
Cn1c(=O)n(CCCO)c(=O)c2c1nc(Oc1cccc(OC(F)(F)F)c1)n2Cc1ccc(Cl)cc1 [HC-608] | > 1640 | 1.1 | 5 | 3.1 | 4 | 9.7 | 6.9 | -15.6 | -12.8 | -14.2 | -10.8 | 3.1 | -3.9 | -0.2 | 14.8 | 7.3 | 1.8 | -14.3 | -6.2 | -8.5 | IC50 (hTRPV1): > 1640 nM; IC50 (hTRPV3): > 1640 nM; inhibition at 1 µM (5-HT2C (h); read-out: % Inhibition 2nd): -4.7%; inhibition at 1 µM (5-HT2C (h); read-out: % Inhibition Mean): -6.6%; inhibition at 1 µM ([1]; read-out: % Inhibition 1st): 4.8%; inhibition at 1 µM ([1]; read-out: % Inhibition 2nd): 18.1%; inhibition at 1 µM ([1]; read-out: % Inhibition Mean): 11.5%; inhibition at 1 µM (5-HT transporter (h); read-out: % Inhibition 1st): -6.2%; inhibition at 1 µM (5-HT transporter (h); read-out: % Inhibition 2nd): 4.6%; inhibition at 1 µM (5-HT transporter (h); read-out: % Inhibition Mean): -0.8%; inhibition at 1 µM (PDE5 (h) (non-selective); read-out: % Inhibition 1st): 54.6%; inhibition at 1 µM (PDE5 (h) (non-selective); read-out: % Inhibition 2nd): 59.4%; inhibition at 1 µM (PDE5 (h) (non-selective); read-out: % Inhibition Mean): 57%
